Assay results from publication PMC7307922 (Journal of Medicinal Chemistry, 2020).
Structures can show the parent of a compound that is named as a salt. Where two headings read alike, the source gives them in different places.

Target: T1, hFFA3 (Homo sapiens, UniProt O14843)
T1 sequence (O14843 1-346): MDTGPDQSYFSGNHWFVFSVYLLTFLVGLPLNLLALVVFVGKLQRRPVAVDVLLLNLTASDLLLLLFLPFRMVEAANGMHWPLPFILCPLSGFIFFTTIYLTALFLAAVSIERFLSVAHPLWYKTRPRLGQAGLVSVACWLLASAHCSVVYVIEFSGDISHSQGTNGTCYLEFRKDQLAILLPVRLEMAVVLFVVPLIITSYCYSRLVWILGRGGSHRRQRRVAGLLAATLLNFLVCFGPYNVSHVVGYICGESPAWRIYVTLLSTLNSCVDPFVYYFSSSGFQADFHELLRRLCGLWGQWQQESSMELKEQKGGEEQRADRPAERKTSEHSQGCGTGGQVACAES
Test: cell-based
Conditions: for PAM pEC50: cAMP assay in the presence of 1 μM propionate; for cAMP pEC50: compound alone, mean of ≥3 independent experiments ± standard error; for allosteric effect on propionate response: cAMP assay together with propionate (56: 30 μM compound; 62, 63: 1 μM propionate); for Emax: HEK293, read-out: cAMP Emax
Protocol: The ligands were initially screened in a human FFA3-dependent [^35S]GTPγS binding assay as this assay reflects receptor-mediated activation of Gi/o proteins and is known to generally correlate well with ligand affinity.[30] Analogues of particular interest were tested further in a cAMP inhibition assay as this is an important downstream effect of Gi-activation. […] It is furthermore performed in whole cells, is more downstream, includes G protein signal amplification, and therefore better reflects a more natural ligand–receptor response.
HEK293 Flp-In T-Rex cells stably transfected with FFA3-eYFP receptors were incubated overnight with doxycycline to induce expression, then harvested, and cryopreserved. On the day of each experiment, cells were thawed and resuspended in stimulation buffer. Assays were carried out using a 384-well plate format with 3000 cells/well using the CisBio cAMP GS dynamic kit as per manufacturer’s protocol. Compounds were tested for the ability to inhibit 0.3 μM forskolin-induced cAMP production after co-incubation for 1 h. Reactions were measured using a PHERAstar FS plate reader (BMGLabtech, Aylesbury, UK).

| SMILES | PAM pEC50 | cAMP pEC50 (hFFA3) | Emax | other results |
| --- | --- | --- | --- | --- |
| CCCCC1C(C(=O)Nc2ccccc2C)=C(C)NC2=C1C(=O)CCC2 (centres unmarked) [Compound 36, 2-Methyl-5-oxo-4-butyl-N-(o-tolyl)-1,4,5,6,7,8-hexahydroquinoline-3-carboxamide] | 6.58 ± 0.06 | 5.86 ± 0.03 | – | – |
| CC1=C(C(=O)Nc2cc(Cl)ccc2Cl)C(CC2CCN(C(=O)OC(C)(C)C)CC2)C2=C(CCCC2=O)N1 (centres unmarked) [Compound 56, tert-Butyl 4-((3-((2,5-dichlorophenyl)carbamoyl)-2-methyl-5-oxo-1,4,5,6,7,8-hexahydroquinolin-4-yl)methyl)piperidine-1-carboxylate] | – | nr^d | – | allosteric effect on propionate response: NAM |
| CC1=C(C(=O)Nc2ccccc2C)C(C2CCCC2)C2=C(CCCC2=O)N1 (centres unmarked) [Compound 32, 4-Cyclopentyl-2-methyl-5-oxo-N-(o-tolyl)-1,4,5,6,7,8-hexahydroquinoline-3-carboxamide] | – | 6.54 ± 0.02 | 102% | increase in potency (cyclopentyl relative to cyclohexyl (31)): 20 fold; EC50 (read-out: EC50 (cAMP assay), hFFA3): 0.288 µM |
| CC1=C(C(=O)Nc2ccccc2C)C(c2csc3ccccc23)C2=C(CCCC2=O)N1 (centres unmarked) [Compound 46, 4-(Benzo[b]thiophen-3-yl)-2-methyl-5-oxo-N-(o-tolyl)-1,4,5,6,7,8-hexahydroquinoline-3-carboxamide] | – | 5.11 ± 0.04 | 95% | – |
| COC(=O)C1=C(C)NC2=C(C(=O)CCC2)C1CC(C)C (centres unmarked) [Compound 28, Methyl 4-isobutyl-2-methyl-5-oxo-1,4,5,6,7,8-hexahydroquinoline-3-carboxylate] | 6.21 ± 0.10 | inactive alone and nr^c | – | allosteric effect on propionate response: PAM properties |
| Cc1ccccc1NC(=O)C1=C(c2ccccc2)NC2=C(C(=O)CCC2)C1c1ccco1 (centres unmarked) [Compound 23, 4-(Furan-2-yl)-5-oxo-2-phenyl-N-(o-tolyl)-1,4,5,6,7,8-hexahydroquinoline-3-carboxamide] | – | completely inactive and nr^c | – | – |
| CCC1=C(C(=O)Nc2ccccc2C)C(c2ccco2)C2=C(CCCC2=O)N1 (centres unmarked) [Compound 22, 2-Ethyl-4-(furan-2-yl)-5-oxo-N-(o-tolyl)-1,4,5,6,7,8-hexahydroquinoline-3-carboxamide] | – | 5.47 ± 0.04 | 95% | – |
| CC1=C(C(=O)Nc2ccccc2C)C(CC(C)C)C(C(=O)c2ccccc2)=C(C)N1 (centres unmarked) [Compound 25, 5-Benzoyl-4-isobutyl-2,6-dimethyl-N-(o-tolyl)-1,4-dihydropyridine-3-carboxamide] | nr^c | nr^c | – | EC50: > 100 µM |
| CC1=C(C(=O)Nc2cc(Cl)ccc2Cl)C(CN)C2=C(CCCC2=O)N1 (centres unmarked) [Compound 52, 4-(Aminomethyl)-N-(2,5-dichlorophenyl)-2-methyl-5-oxo-1,4,5,6,7,8-hexahydroquinoline-3-carboxamide Hydrochloride] | – | nr^d | – | – |
| CCN(CC)CCOCC1C(C(=O)Nc2cc(Cl)ccc2Cl)=C(C)NC2=C1C(=O)CCC2 (centres unmarked) [Compound 54, N-(2,5-Dichlorophenyl)-4-((2-(diethylamino)ethoxy)methyl)-2-methyl-5-oxo-1,4,5,6,7,8-hexahydroquinoline-3-carboxamide] | – | nr^d | – | – |
| CC1=C(C(=O)Nc2ccccc2C)C(C2CCCCC2)C2=C(CCCC2=O)N1 (centres unmarked) [Compound 31, 4-Cyclohexyl-2-methyl-5-oxo-N-(o-tolyl)-1,4,5,6,7,8-hexahydroquinoline-3-carboxamide] | – | 5.26 ± 0.10 | 91% | – |
| CC1=C(C(=O)Nc2ccccc2C)C(c2cc(C)cs2)C2=C(CCCC2=O)N1 (centres unmarked) [Compound 43, 2-Methyl-4-(4-methylthiophen-2-yl)-5-oxo-N-(o-tolyl)-1,4,5,6,7,8-hexahydroquinoline-3-carboxamide] | – | 5.86 ± 0.04 | 102% | – |
| CC1=C(C(=O)c2ccccc2)C(CC(C)C)C2=C(CCCC2=O)N1 (centres unmarked) [Compound 29, 3-Benzoyl-4-isobutyl-2-methyl-4,6,7,8-tetrahydroquinolin-5(1H)-one] | >4 | inactive alone and nr^c | – | allosteric effect on propionate response: PAM properties |
| CC1=C(C(=O)Nc2ccccc2C)C(CCc2ccccc2)C2=C(CCCC2=O)N1 (centres unmarked) [Compound 38, 2-Methyl-5-oxo-4-phenethyl-N-(o-tolyl)-1,4,5,6,7,8-hexahydroquinoline-3-carboxamide] | 6.23 ± 0.03 | 4.21 ± 0.27 | 97% | EC50: > 10 µM |
| CCC1C(C(=O)Nc2ccccc2C)=C(C)NC2=C1C(=O)CCC2 (centres unmarked) [Compound 34, 4-Ethyl-2-methyl-5-oxo-N-(o-tolyl)-1,4,5,6,7,8-hexahydroquinoline-3-carboxamide] | 6.45 ± 0.16 | 5.38 ± 0.13 | 106% | – |
| CCCCCC1C(C(=O)Nc2ccccc2C)=C(C)NC2=C1C(=O)CCC2 (centres unmarked) [Compound 37, 2-Methyl-5-oxo-4-pentyl-N-(o-tolyl)-1,4,5,6,7,8-hexahydroquinoline-3-carboxamide] | 6.40 ± 0.10 | 5.60 ± 0.17 | – | – |
| CC1=C(C(=O)Nc2cc(Cl)ccc2Cl)C(CCn2cccn2)C2=C(CCCC2=O)N1 (centres unmarked) [Compound 40, 4-(2-(1H-Pyrazol-1-yl)ethyl)-N-(2,5-dichlorophenyl)-2-methyl-5-oxo-1,4,5,6,7,8-hexahydroquinoline-3-carboxamide] | – | 4.95 ± 0.08 | 96% | EC50: > 10 µM |
| CC1=C(C(=O)Nc2ccccc2C)C(c2cccn2C)C2=C(CCCC2=O)N1 (centres unmarked) [Compound 41, 2-Methyl-4-(1-methyl-1H-pyrrol-2-yl)-5-oxo-N-(o-tolyl)-1,4,5,6,7,8-hexahydroquinoline-3-carboxamide] | – | 4.45 ± 0.09 | 97% | – |
| COC(=O)C1=C(C)NC(C)=C(C(=O)Nc2ccccc2C)C1CC(C)C (centres unmarked) [Compound 26, Methyl 4-isobutyl-2,6-dimethyl-5-(o-tolylcarbamoyl)-1,4-dihydropyridine-3-carboxylate] | 6.16 ± 0.12 | nr^c | – | EC50: > 100 µM; allosteric effect on propionate response: PAM |
| CCC(C)C1C(C(=O)Nc2ccccc2C)=C(C)NC2=C1C(=O)CCC2 (centres unmarked) [Compound 30, 4-(sec-Butyl)-2-methyl-5-oxo-N-(o-tolyl)-1,4,5,6,7,8-hexahydroquinoline-3-carboxamide] | 6.30 ± 0.04 | 5.00 ± 0.07 | 110% | – |
| CC1=C(C(=O)Nc2ccccc2C)C(c2cc3ccccc3o2)C2=C(CCCC2=O)N1 (centres unmarked) [Compound 45, 4-(Benzofuran-2-yl)-2-methyl-5-oxo-N-(o-tolyl)-1,4,5,6,7,8-hexahydroquinoline-3-carboxamide] | – | 6.00 ± 0.02 | 98% | – |
| CC1=C(C(=O)Nc2cc(Cl)ccc2Cl)C(CNC(=O)OC(C)(C)C)C2=C(CCCC2=O)N1 (centres unmarked) [Compound 55, tert-Butyl((3-((2,5-dichlorophenyl)carbamoyl)-2-methyl-5-oxo-1,4,5,6,7,8-hexahydroquinolin-4-yl)methyl)carbamate] | – | nr^d | – | – |
| CC1=C(C(=O)Nc2ccccc2C)C(/C=C/c2ccccc2)C2=C(CCCC2=O)N1 (centres unmarked) [Compound 39] | 6.14 ± 0.07 | 4.34 ± 0.18 | 113% | EC50: > 10 µM |
